The term IC50 denotes the midpoint of a concentration-inhibition curve. By CC50 is commonly meant the concentration at which the toxic effect on the cells reaches its halfway point. What is called EC50 is the concentration at which the effect is half-maximal. As usually defined, the AC50 is the concentration giving half of the maximal activity seen.

Active and inactive are the calls of the source.

Assay [1] concerns the target Glyceraldehyde-3-phosphate dehydrogenase (Homo sapiens, UniProt P04406).
Assay [2] concerns the target T1, Bcl-2-related protein A1 (Mus musculus, UniProt Q07440).
T1 sequence (Q07440 whole entry): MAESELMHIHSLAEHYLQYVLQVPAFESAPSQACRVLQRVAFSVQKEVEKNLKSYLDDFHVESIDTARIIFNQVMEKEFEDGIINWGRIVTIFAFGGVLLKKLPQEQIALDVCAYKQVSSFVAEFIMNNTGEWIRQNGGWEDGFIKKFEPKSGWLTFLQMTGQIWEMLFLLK
In words: Bfl-1 inhibitors blocking BH3 peptide binding, confirmation, biochemical, TR-FRET, mouse Bfl-1 (AID 621).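 Also: TR-FRET binding of GST-Bfl-1 to FITC-labelled Bid peptide via terbium antibody.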 Background: In TR-FRET formats the signal depends on donor and acceptor labels being close together.

For assay [3], the target named is T1, Bcl-2-related protein A1. Put plainly: Bfl-1 binding inhibitors, SAR follow-up, biochemical, fluorescence polarization (AID 1070).
The target in another assay is Genome polyprotein (Hepatitis C virus, UniProt Q2Q167). In words: HCV core protein dimerization inhibitors, dose response, biochemical, TR-FRET (AID 2159).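 Also: blocks dimerization of HCV core protein measured by TR-FRET between tagged core106 pairs.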 On the set-up: species or system Hepacivirus hominis.
Chain of Genome polyprotein (Q2Q167 whole entry): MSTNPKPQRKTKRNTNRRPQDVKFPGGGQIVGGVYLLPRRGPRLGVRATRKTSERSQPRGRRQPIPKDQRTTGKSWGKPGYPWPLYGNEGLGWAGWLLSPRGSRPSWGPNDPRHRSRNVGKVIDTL
For another assay, the target named is T2, Bcl-2-like protein 10 (Homo sapiens, UniProt Q9HD36).
T2 sequence (Q9HD36 whole entry): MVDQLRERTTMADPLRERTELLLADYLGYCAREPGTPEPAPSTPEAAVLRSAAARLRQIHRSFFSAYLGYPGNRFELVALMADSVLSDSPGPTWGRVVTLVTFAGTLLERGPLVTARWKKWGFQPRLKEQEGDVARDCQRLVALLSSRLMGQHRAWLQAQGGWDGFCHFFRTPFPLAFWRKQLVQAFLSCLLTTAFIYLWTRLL
In words: displacers of TR3 peptide from Bcl-B, primary screen, selectivity assay for Bfl-1 inhibitor project, biochemical, fluorescence polarization, FITC-TR3 peptide (AID 748).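 Also: fluorescence polarization from a fluorescein-labelled TR3 peptide binding purified Bcl-B.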

The target of assay [4] is T3, SUMO-activating enzyme (Homo sapiens, UniProt Q9UBT2). Put plainly: SUMOylation inhibitor hit validation, confirmation, SUMOylation inhibitor project, biochemical, AlphaScreen (AID 2018). The class given is functional.
T3 sequence (Q9UBE0 whole entry): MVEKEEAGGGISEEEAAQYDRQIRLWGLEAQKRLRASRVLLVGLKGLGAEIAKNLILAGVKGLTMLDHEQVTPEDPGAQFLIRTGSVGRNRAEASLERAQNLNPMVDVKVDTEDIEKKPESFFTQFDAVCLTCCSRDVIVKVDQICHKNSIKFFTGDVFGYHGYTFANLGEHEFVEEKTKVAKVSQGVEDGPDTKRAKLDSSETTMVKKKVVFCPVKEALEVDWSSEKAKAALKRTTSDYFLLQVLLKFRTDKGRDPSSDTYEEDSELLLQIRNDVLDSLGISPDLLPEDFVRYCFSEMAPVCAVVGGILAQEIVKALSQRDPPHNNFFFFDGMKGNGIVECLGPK
T3 sequence (Q9UBT2 whole entry): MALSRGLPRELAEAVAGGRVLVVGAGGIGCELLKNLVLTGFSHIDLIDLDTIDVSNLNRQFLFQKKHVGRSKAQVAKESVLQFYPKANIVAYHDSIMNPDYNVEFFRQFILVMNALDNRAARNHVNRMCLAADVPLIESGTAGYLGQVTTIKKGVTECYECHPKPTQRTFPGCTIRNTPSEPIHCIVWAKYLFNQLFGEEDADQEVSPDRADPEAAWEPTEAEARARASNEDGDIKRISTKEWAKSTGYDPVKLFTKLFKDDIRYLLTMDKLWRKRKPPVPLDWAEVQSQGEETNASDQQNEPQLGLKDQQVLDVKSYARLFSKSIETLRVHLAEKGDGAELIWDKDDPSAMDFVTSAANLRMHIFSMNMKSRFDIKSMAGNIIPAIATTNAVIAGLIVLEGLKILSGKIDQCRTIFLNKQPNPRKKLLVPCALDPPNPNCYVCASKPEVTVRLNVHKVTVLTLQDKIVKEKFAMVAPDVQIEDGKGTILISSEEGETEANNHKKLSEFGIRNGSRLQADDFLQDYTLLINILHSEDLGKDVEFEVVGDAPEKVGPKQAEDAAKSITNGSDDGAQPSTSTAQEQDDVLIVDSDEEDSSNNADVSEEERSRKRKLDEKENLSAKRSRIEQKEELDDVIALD
Assay [5] has as its target T3, SUMO-activating enzyme. In words: inhibitors of in vitro SUMOylation cascade, primary screen, biochemical, HTRF, uHTS (AID 2006). The class given is protein-complex assay.
Assay [6] concerns the target Protein-tyrosine kinase 2-beta (Homo sapiens, UniProt Q14289).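 Also: potency of inhibitors of PYK2 kinase phosphorylation of poly-GT substrate.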
Assay [7] addresses Induced myeloid leukemia cell differentiation protein Mcl-1 (Homo sapiens, UniProt Q07820). It counts as functional.
Another assay concerns the target SUMO E1/E2 (Homo sapiens, UniProt P63279+Q9UBE0+Q9UBT2). In words: SAR analysis of SUMOylation using HTRF in an in-Vitro dose response assay. [Related pubchem assays (depositor defined):AID2006, AID2011, AID2018, AID2069, AID2658]. The class given is functional.
The target in assay [8] is T4, Voltage-gated N-type calcium channel alpha-1B subunit/Amyloid beta A4 precursor protein-binding family A member 1 (Homo sapiens, UniProt Q00975+Q02410). In words: disruptors of Mint-PDZ/N-type channel peptide interaction – biochemical, HTRF, set 2, SAR follow-up (AID 434980). The class given is functional.
T4 sequence (Q00975 whole entry): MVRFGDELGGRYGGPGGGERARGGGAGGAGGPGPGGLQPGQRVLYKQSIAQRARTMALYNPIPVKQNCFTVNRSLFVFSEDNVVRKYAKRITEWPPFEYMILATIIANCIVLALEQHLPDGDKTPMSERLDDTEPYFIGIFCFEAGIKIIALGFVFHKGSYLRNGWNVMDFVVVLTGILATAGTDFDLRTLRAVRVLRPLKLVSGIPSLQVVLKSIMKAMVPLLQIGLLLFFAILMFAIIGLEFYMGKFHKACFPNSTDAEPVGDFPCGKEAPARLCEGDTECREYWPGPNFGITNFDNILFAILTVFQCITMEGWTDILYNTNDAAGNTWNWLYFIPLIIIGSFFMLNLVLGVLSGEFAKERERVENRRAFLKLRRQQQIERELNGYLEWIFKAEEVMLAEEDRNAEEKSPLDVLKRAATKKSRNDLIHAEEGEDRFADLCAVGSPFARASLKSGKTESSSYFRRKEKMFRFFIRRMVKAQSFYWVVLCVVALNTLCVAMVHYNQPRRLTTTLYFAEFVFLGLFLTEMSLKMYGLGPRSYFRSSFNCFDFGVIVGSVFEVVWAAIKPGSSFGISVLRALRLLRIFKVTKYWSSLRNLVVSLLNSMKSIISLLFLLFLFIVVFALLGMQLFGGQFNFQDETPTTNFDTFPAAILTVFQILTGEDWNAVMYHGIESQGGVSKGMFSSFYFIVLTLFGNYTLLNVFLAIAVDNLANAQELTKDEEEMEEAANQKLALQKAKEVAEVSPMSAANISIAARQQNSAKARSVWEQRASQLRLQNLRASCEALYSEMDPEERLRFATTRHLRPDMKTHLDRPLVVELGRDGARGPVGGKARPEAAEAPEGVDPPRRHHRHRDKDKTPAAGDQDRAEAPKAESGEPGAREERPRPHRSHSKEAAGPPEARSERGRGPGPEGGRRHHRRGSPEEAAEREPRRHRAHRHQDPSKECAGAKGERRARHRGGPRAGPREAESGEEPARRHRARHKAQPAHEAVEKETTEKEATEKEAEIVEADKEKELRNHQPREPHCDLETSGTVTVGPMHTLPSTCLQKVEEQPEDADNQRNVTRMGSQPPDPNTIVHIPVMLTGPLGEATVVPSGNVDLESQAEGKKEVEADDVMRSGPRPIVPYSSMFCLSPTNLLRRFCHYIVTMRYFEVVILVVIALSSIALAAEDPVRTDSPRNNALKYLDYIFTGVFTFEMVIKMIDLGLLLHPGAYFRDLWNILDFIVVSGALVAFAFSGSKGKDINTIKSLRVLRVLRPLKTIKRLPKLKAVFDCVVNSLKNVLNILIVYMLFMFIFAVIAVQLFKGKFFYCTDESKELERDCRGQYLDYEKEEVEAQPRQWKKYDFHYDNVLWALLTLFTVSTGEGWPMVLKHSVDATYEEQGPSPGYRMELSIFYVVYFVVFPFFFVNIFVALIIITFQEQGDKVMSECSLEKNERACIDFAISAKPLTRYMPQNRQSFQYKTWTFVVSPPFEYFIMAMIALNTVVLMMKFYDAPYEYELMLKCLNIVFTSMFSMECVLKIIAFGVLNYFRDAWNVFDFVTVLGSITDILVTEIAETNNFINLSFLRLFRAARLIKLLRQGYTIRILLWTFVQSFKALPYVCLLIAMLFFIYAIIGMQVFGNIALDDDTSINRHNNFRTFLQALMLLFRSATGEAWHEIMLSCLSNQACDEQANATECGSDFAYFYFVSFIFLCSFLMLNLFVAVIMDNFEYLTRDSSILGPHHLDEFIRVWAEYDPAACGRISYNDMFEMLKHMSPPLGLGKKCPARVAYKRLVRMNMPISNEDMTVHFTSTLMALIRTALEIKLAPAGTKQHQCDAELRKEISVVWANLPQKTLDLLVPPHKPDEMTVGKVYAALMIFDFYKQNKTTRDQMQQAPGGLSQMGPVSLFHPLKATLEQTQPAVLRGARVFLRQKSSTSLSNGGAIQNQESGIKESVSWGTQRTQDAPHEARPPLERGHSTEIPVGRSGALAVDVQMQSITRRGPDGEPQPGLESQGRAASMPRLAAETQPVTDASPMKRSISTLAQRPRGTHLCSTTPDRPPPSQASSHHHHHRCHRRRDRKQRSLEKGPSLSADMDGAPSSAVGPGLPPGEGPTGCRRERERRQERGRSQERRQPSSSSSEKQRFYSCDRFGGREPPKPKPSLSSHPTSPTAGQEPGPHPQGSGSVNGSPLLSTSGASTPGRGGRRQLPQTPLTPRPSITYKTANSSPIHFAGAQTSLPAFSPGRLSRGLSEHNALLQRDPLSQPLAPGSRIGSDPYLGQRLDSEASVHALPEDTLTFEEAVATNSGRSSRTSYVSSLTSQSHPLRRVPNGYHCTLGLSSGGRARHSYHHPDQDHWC
T4 sequence (Q02410 whole entry): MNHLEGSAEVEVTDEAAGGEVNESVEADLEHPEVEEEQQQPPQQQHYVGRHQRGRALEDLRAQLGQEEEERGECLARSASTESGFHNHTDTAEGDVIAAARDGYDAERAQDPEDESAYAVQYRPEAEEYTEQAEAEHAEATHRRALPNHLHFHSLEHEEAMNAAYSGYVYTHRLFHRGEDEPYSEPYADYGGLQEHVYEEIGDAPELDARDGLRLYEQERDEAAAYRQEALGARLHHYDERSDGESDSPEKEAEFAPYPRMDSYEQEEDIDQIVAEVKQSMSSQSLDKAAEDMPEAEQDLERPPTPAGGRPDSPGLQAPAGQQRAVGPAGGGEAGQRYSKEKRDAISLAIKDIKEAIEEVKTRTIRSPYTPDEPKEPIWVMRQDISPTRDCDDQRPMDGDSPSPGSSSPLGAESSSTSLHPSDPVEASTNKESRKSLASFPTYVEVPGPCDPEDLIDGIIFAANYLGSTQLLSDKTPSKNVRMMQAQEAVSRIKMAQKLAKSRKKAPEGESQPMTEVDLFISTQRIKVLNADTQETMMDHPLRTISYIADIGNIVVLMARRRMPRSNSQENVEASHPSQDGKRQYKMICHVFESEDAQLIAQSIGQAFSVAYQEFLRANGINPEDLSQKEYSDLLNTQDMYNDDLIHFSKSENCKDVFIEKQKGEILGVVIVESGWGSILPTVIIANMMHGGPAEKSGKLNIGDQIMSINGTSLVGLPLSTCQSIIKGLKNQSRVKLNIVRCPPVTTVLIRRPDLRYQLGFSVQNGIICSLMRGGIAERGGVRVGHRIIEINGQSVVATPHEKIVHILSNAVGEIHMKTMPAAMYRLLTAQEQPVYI
The target of assay [9] is T4, Voltage-gated N-type calcium channel alpha-1B subunit/Amyloid beta A4 precursor protein-binding family A member 1. In words: disruptors of Mint-PDZ/N-type channel peptide interaction – biochemical, HTRF, SAR follow-up (AID 2489). The class given is functional.
Assay [10] addresses DNA (cytosine-5)-methyltransferase 1 (Homo sapiens, UniProt P26358). Put plainly: DNMT1 methyltransferase inhibitors, confirmation, biochemical, fluorescent molecular beacon (AID 602386). It counts as functional.
In another assay the target is T5, Protein Tat (Human immunodeficiency virus type 1 group M subtype B (isolate HXB2)(HIV-1), UniProt P04608).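 Also: tat binding to TAR RNA read out by fluorescence polarization.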
T5 sequence (P04608 whole entry): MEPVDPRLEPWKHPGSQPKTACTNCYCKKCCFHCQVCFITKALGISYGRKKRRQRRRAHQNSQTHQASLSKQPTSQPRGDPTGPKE
It counts as functional.

Assay [11] can be described thus: THP-1 cell cytotoxicity, dose response, cytotoxicity control for Vif-APOBEC3G degradation inhibitor project, THP-1 cells (AID 1117359). It counts as functional. The note with it: Human immunodeficiency virus 1, THP-1.
For the next assay, the target named is T6, Leucine aminopeptidase (Plasmodium falciparum 3D7, UniProt Q8IL11).
T6 sequence (Q8IL11 whole entry): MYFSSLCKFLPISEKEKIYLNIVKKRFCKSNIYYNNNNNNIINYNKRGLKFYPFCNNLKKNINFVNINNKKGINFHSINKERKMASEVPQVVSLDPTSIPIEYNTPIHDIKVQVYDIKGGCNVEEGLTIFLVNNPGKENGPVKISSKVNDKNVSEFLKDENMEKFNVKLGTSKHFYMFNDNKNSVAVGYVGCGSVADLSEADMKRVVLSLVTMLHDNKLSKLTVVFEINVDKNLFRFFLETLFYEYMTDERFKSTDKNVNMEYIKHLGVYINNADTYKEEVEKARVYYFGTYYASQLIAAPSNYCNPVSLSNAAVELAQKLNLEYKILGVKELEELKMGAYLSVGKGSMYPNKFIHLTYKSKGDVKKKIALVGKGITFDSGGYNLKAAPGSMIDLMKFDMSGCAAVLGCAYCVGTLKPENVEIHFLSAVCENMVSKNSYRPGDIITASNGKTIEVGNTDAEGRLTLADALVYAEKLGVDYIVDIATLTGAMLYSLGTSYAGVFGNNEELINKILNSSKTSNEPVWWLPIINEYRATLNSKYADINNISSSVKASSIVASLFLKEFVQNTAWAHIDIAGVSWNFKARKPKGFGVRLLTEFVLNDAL
Put plainly: P. falciparum M17LAP inhibitors, primary screen, biochemical, fluorogenic H-Leu-NHMec substrate, 1536-well (AID 1619). It counts as functional.

The target in a further assay is Aspartyl aminopeptidase (Plasmodium falciparum 3D7, UniProt Q8I2J3). Put plainly: Counterscreen for inhibitors of M1 and M17 aminopeptidases: QFRET-based biochemical high throughput dose response assay for inhibitors of the Plasmodium falciparum M18 Aspartyl Aminopeptidase (PFM18AAP). [Related PubChem assays: 1619 (Screening assay (M17LAP inhibitors).), 1445 (Screening assay (M1AAP inhibitors).)]. (In general: A counterscreen serves to expose hits that act by an unwanted route or on another target.)

Another assay addresses Procathepsin L (Homo sapiens, UniProt P07711). Put plainly: cathepsin L inhibitors, dose response, counter-screen for M1/M17 aminopeptidase inhibitor project, biochemical, QFRET, 1536-well (AID 2214).
Assay [12] is described as follows: Luminescence Cell-Based Dose Confirmation HTS to Identify Inhibitors of Polyadenylation. The class given is functional.
The target in assay [13] is T7, RNA-binding protein pos-1 (Caenorhabditis elegans, UniProt G5EF15).
T7 sequence (G5EF15 whole entry): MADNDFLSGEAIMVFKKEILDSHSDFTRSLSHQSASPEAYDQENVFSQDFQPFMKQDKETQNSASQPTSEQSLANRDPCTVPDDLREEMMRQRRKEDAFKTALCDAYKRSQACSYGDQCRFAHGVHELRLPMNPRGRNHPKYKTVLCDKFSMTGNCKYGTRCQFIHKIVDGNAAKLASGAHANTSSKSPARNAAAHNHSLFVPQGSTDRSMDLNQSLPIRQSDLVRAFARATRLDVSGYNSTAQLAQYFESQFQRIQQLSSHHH
Put plainly: inhibitors of POS-1/mex-3 RNA binding, dose response, biochemical, fluorescence polarization (AID 1964).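 Also: purified POS-1 fused to maltose binding protein made in E. coli; potency of compounds blocking POS-1 binding to fluorescent RNA.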

Assay [14] addresses T8, Zinc finger protein mex-5 (Caenorhabditis elegans, UniProt Q9XUB2).
T8 sequence (Q9XUB2 whole entry): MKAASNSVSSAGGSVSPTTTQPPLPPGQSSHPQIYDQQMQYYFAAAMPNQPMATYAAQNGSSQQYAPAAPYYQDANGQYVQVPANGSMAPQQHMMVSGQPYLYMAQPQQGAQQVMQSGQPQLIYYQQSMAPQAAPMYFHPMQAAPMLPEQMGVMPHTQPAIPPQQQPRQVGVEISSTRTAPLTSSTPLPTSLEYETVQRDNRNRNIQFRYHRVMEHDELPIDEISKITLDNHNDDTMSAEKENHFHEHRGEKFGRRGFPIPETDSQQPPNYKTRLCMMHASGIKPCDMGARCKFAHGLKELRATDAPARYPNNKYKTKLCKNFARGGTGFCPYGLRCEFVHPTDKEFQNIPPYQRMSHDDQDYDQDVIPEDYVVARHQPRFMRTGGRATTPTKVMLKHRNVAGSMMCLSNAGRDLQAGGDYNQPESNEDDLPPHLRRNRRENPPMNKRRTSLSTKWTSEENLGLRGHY
In words: MEX-5/TCR-2 RNA interaction inhibitors, dose response, biochemical, C. elegans, fluorescence polarization (AID 1960). For orientation: Polarisation of emitted light reports the rotation of a fluorescent probe.

A short description of assay [15]: Escherichia coli growth inhibition, dose response, counter-screen for MEX-5/POS-1 RNA-binding inhibitor project, luminescence, NEB5alpha (AID 1959). The class given is functional.
For the next assay, the target named is Large T antigen (Simian virus 40, UniProt P03070). It counts as functional, Betapolyomavirus macacae.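 Also: Confirmatory-stage PubChem screen for compounds that inhibit SV40 T antigen.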
Chain of Large T antigen (P03070 whole entry): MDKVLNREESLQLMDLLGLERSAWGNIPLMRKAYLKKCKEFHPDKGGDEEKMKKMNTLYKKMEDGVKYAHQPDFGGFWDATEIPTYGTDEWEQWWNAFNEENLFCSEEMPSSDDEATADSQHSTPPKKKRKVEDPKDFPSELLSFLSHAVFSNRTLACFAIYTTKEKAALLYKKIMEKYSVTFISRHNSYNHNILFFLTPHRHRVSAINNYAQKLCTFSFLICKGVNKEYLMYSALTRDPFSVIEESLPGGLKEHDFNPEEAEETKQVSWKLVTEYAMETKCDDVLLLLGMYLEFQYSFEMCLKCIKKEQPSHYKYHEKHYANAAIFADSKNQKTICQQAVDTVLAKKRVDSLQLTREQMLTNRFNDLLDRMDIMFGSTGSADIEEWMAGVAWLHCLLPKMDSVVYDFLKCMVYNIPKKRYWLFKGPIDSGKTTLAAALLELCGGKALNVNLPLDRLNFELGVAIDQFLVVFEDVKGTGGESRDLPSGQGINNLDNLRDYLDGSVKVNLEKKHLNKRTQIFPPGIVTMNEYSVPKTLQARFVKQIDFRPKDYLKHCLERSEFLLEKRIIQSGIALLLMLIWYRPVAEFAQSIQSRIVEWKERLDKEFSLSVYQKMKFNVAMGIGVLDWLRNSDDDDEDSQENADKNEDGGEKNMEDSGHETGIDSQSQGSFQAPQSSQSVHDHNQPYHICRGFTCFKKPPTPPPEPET
The target in assay [16] is Luciferin 4-monooxygenase (Photinus pyralis, UniProt P08659). Put plainly: firefly luciferase enzyme inhibitors, dose response, biochemical, luminescence (AID 1891).
The nature of assay [17]: Luminescence Cell-Based Dose Confirmation HTS to Identify Inhibitors of Platelet Dense Granule Release. [Related pubchem assays: 1663 (Primary HTS), 1678 (Summary of Project)]. The class given is functional.
Assay [18] addresses T9, Histone-lysine N-methyltransferase NSD2 (Homo sapiens, UniProt O96028).
T9 sequence (O96028 whole entry): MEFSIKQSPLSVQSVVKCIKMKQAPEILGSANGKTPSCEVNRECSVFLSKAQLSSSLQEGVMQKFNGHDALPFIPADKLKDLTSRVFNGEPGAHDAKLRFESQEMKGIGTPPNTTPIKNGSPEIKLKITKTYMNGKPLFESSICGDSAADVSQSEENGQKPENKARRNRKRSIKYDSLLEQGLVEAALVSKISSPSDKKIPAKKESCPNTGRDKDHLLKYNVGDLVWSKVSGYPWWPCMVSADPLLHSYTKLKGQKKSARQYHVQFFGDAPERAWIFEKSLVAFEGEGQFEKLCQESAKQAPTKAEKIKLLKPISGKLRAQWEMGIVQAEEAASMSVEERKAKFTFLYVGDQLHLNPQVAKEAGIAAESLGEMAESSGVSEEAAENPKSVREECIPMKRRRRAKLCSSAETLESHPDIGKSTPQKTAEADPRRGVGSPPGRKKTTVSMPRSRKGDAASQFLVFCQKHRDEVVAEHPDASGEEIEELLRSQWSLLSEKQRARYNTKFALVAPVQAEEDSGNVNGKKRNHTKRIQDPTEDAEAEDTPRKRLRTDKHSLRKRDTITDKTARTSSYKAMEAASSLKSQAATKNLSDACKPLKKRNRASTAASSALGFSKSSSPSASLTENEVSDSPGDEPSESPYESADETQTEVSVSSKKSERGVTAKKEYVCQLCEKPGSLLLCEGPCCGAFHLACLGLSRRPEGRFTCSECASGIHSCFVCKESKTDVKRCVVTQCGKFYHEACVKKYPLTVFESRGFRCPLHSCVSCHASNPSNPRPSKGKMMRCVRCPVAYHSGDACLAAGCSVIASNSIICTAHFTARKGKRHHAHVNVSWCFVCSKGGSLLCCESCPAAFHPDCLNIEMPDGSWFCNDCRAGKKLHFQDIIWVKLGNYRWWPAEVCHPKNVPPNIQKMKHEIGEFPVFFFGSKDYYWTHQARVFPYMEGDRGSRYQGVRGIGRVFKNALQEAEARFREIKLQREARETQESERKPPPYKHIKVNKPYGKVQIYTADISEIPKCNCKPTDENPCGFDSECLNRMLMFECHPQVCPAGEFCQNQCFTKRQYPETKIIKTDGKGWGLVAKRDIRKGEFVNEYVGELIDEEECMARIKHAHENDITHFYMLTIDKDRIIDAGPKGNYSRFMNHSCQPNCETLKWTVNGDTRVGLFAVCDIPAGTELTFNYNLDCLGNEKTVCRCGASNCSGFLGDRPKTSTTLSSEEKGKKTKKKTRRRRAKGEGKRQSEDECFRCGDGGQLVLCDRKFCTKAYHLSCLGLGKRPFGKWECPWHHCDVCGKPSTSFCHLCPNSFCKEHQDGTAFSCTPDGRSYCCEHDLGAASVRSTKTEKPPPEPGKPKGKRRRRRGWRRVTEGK
The class given is biochemical.

On to `CC1C(=O)NCCN1C1=C(Cl)C(=O)N(c2ccc(Cl)c(Cl)c2)C1=O` (stereo unspecified), for which the results for the IC50 (in assay [1]; at Bcl-2-related protein A1 [2]; at Bcl-2-related protein A1 [3]) were > 50 µM (inconclusive), 2.03 µM (active) and 5.63 µM (active), respectively.

As to `COc1ccccc1CNC(=O)COC(=O)c1cc(-c2ccco2)nc2ccccc12`, the IC50 was > 49.8 µM (not active) against Genome polyprotein; 10.7 µM (active) at Bcl-2-like protein 10; 5.42 µM (active) on SUMO-activating enzyme [4]; 10.6 µM (active) at SUMO-activating enzyme [5]; 5.79 µM (active) in assay [6]; 2.04 µM (active) in [7]. Besides, the IC50 on SUMO E1/E2 was 5.8 µM (active); in assay [8], 7.83 µM (active); in [9] it was 22.7 µM (active); in [10] it was 7.11 µM (active); on Protein Tat it was > 100 µM (active). For the same compound, the 50% cytotoxic concentration (CC50) in assay [11] is > 40 µM (active).

For the compound `Cc1ccc(Nc2nnc(SCc3cc(=O)n4ccsc4n3)s2)c(C)c1`, the IC50 is 6.49 µM (active) on Leucine aminopeptidase, > 73.5 µM (not active) on Aspartyl aminopeptidase and > 59.6 µM (not active) against Procathepsin L.

As to `CC(C)CC(Nc1ncnc2scc(-c3ccccc3)c12)C(=O)O` (stereo unspecified), the EC50 in assay [12] is > 120 µM (not active).

As to `O=C(/C=C/c1ccc(O)c(O)c1)c1ccccc1O`, the EC50 was > 300 µM (not active) in assay [13]; 42.3 µM (active) in assay [14]; 19.5 µM (active) in assay [15]; 437 nM (active) in [16]; 2.23 µM (active) in assay [17]. Moreover, the IC50 at Large T antigen was 17.4 µM (active). For the same compound, in assay [18], the AC50 was > 20 µM (inactive).

These data come from ChEMBL document CHEMBL1201862, “PubChem BioAssay data set” (2004).
